From US20230085307A1, “PYRIDAZINONE COMPOUND AND HERBICIDE” (NISSAN CHEMICAL CORPORATION, priority 2019, published 2023)

Columns and labels:
late watergrass [1] = assay: Test Example 2: herbicidal activity, application during weed generation under submerged conditions (Table 17, symbol A); format: in vivo, late watergrass (Echinochloa oryzicola); settings: AAH 320 g/ha; application during weed generation, submerged conditions
Summary of the method: (§1)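 3-wk visual-criteria score after one water-surface dose. Emulsion formulation, water-diluted to set rate; applied at 1–2 leaf stage; alluvial soil, 4 cm standing water; seeds co-sown; greenhouse 25–30° C.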

barnyard grass = assay: Test Example 3: herbicidal effect by foliage application, Wagner pot (Table 18, symbol H); format: in vivo, barnyard grass (Echinochloa crus-galli); settings: 320 g/ha
Summary of the method: (§2)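 Plants were sown in alluvial soil held under 0.1–0.5 cm standing water and grown 14 days in a greenhouse at 25–30 °C. An emulsifiable formulation, water-diluted to the set dose, was then sprayed onto the foliage, and effects were scored three weeks later using previously defined criteria.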

Japanese bulrush [2] = assay: Test Example 2: herbicidal activity, application during weed generation under submerged conditions (Table 17, symbol B); format: in vivo, Japanese bulrush (Schoenoplectus juncoides); settings: AAH 320 g/ha; application during weed generation, submerged conditions
Summary of the method: as §1

oval-leafed pondweed [3] = assay: Test Example 1: herbicidal activity, application before weed generation under submerged conditions (Table 16, symbol C); format: in vivo, oval-leafed pondweed (Monochoria vaginalis); settings: 320 g/ha applied herbicide
Summary of the method: (§3)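 Submerged Wagner pots (alluvial soil, 4 cm water) sown with weed seeds and planted with 2.5-leaf rice seedlings; emulsifiable concentrate diluted in water applied to water surface on sowing day. Held in greenhouse at 25-30 °C; injury scored 0-5 by herbicidal rate after three weeks.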

Japanese bulrush [4] = assay: Test Example 1: herbicidal activity, application before weed generation under submerged conditions (Table 16, symbol B); format: in vivo, Japanese bulrush (Schoenoplectus juncoides); settings: 320 g/ha applied herbicide
Summary of the method: as §3

oval-leafed pondweed [5] = assay: Test Example 2: herbicidal activity, application during weed generation under submerged conditions (Table 17, symbol C); format: in vivo, oval-leafed pondweed (Monochoria vaginalis); settings: AAH 320 g/ha; application during weed generation, submerged conditions
Summary of the method: as §1

Chinese sprangletop = assay: Test Example 3: herbicidal effect by foliage application, Wagner pot (Table 18, symbol D); format: in vivo, chinese sprangletop (Leptochloa chinensis); settings: 320 g/ha
Summary of the method: as §2

late watergrass [6] = assay: Test Example 1: herbicidal activity, application before weed generation under submerged conditions (Table 16, symbol A); format: in vivo, late watergrass (Echinochloa oryzicola); settings: 320 g/ha applied herbicide
Summary of the method: as §3

rice flat sedge = assay: Test Example 3: herbicidal effect by foliage application, Wagner pot (Table 18, symbol E); format: in vivo, rice flat sedge (Cyperus iria); settings: 320 g/ha
Summary of the method: as §2

## C=CCCOc1ccc(-c2sc3ccccc3c2-c2c(O)c(C)nn(C)c2=O)cc1 [1-207]
Late watergrass [1]
  herbicidal effect rating, A: late watergrass: 5 (Herbicidal rate of 90% or more (almost completely withered))
Barnyard grass
  herbicidal effect on H (barnyard grass), rating 0-5: 5 (Herbicidal rate of 90% or more (almost completely withered))
Japanese bulrush [2]
  herbicidal effect rating, B: Japanese bulrush: 4 (Herbicidal rate of 70% or more and less than 90%)
oval-leafed pondweed [3]
  Herbicidal effect on C: oval-leafed pondweed (grade 0-5): 5 (Herbicidal rate of 90% or more (almost completely withered))
Japanese bulrush [4]
  Herbicidal effect on B: Japanese bulrush (grade 0-5): 5 (Herbicidal rate of 90% or more (almost completely withered))
oval-leafed pondweed [5]
  herbicidal effect rating, C: oval-leafed pondweed: 5 (Herbicidal rate of 90% or more (almost completely withered))
Chinese sprangletop
  herbicidal effect on D (Chinese sprangletop), rating 0-5: 5 (Herbicidal rate of 90% or more (almost completely withered))
Late watergrass [6]
  Herbicidal effect on A: late watergrass (grade 0-5): 5 (Herbicidal rate of 90% or more (almost completely withered))
Rice flat sedge
  herbicidal effect on E (rice flat sedge), rating 0-5: 4 (Herbicidal rate of 70% or more and less than 90%)

## Cc1nn(C)c(=O)c(-c2c(-c3ccc(OCCOCCCl)cc3)sc3ccccc23)c1O [1-227]
Late watergrass [1]
  herbicidal effect rating, A: late watergrass: 4 (Herbicidal rate of 70% or more and less than 90%)
Barnyard grass
  herbicidal effect on H (barnyard grass), rating 0-5: 5 (Herbicidal rate of 90% or more (almost completely withered))
Japanese bulrush [2]
  herbicidal effect rating, B: Japanese bulrush: 3 (Herbicidal rate of 40% or more and less than 70%)
oval-leafed pondweed [3]
  Herbicidal effect on C: oval-leafed pondweed (grade 0-5): 5 (Herbicidal rate of 90% or more (almost completely withered))
Japanese bulrush [4]
  Herbicidal effect on B: Japanese bulrush (grade 0-5): 5 (Herbicidal rate of 90% or more (almost completely withered))
oval-leafed pondweed [5]
  herbicidal effect rating, C: oval-leafed pondweed: 3 (Herbicidal rate of 40% or more and less than 70%)
Chinese sprangletop
  herbicidal effect on D (Chinese sprangletop), rating 0-5: 4 (Herbicidal rate of 70% or more and less than 90%)
Late watergrass [6]
  Herbicidal effect on A: late watergrass (grade 0-5): 5 (Herbicidal rate of 90% or more (almost completely withered))
Rice flat sedge
  herbicidal effect on E (rice flat sedge), rating 0-5: 4 (Herbicidal rate of 70% or more and less than 90%)
